#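 Method: 48-hour compound exposure of cells in 96-well plates, five concentrations, linear interpolation of endpoints. GI50: concentration for 50% inhibition of growth.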 Calls of active or inactive are those of the source. Rule as the data show it: active = GI50 up to about 1.1 µM and inactive = higher.
# Legend:
# Test in all cases: NCI tumour cell line growth inhibition, 48 h
# K562 = test system: K562
# MDA-MB-231 = test system: MDA-MB-231
# LOX IMVI = test system: LOX IMVI
# OVCAR-4 = test system: OVCAR-4
# OVCAR-8 = test system: OVCAR-8
# SK-MEL-2 = test system: SK-MEL-2
# MOLT-4 = test system: MOLT-4
# ACHN = test system: ACHN
# SR = test system: SR
# SF-539 = test system: SF-539
# OVCAR-3 = test system: OVCAR-3
# KM12 = test system: KM12
# HT-29 = test system: HT-29
# SNB-19 = test system: SNB-19
# 786-0 = test system: 786-0
# HOP-62 = test system: HOP-62
# BT-549 = test system: BT-549
# OVCAR-5 = test system: OVCAR-5
# MDA-N = test system: MDA-N
# NCI-H522 = test system: NCI-H522
SMILES,GI50 (K562),GI50 (MDA-MB-231),GI50 (LOX IMVI),GI50 (OVCAR-4),GI50 (OVCAR-8),GI50 (SK-MEL-2),GI50 (MOLT-4),GI50 (ACHN),GI50 (SR),GI50 (SF-539),GI50 (OVCAR-3),GI50 (KM12),GI50 (HT-29),GI50 (SNB-19),GI50 (786-0),GI50 (HOP-62),GI50 (BT-549),GI50 (OVCAR-5),GI50 (MDA-N),GI50 (NCI-H522)
CCOC(=O)c1c(NC(=O)c2cccs2)sc2c1CCCC2,> 100 µM (inactive),24.6 µM (inactive),> 100 µM (inactive),60.3 µM (inactive),61.9 µM (inactive),42 µM (inactive),> 100 µM (inactive),> 68.1 µM (inactive),> 80.9 µM (inactive),24.4 µM (inactive),46.3 µM (inactive),> 100 µM (inactive),> 100 µM (inactive),30.1 µM (inactive),34.8 µM (inactive),21.8 µM (inactive),58.7 µM (inactive),35 µM (inactive),> 100 µM (inactive),39.9 µM (inactive)
Cn1c(N)c(/N=N/c2ccc(S(N)(=O)=O)cc2)c(=O)n(C)c1=O,> 100 µM (inactive),> 100 µM (inactive),> 100 µM (inactive),> 100 µM (inactive),> 100 µM (inactive),> 100 µM (inactive),> 100 µM (inactive),96.8 µM (inactive),> 100 µM (inactive),> 100 µM (inactive),> 100 µM (inactive),> 100 µM (inactive),> 100 µM (inactive),81.8 µM (inactive),53.1 µM (inactive),40.9 µM (inactive),> 100 µM (inactive),> 100 µM (inactive),> 100 µM (inactive),80.9 µM (inactive)
O=C(CCc1cc(O)cc(O)c1)NCCCNC(=O)CCc1cc(O)cc(O)c1,> 100 µM (inactive),> 100 µM (inactive),> 100 µM (inactive),> 100 µM (inactive),> 100 µM (inactive),> 100 µM (inactive),> 100 µM (inactive),> 100 µM (inactive),> 100 µM (inactive),> 100 µM (inactive),> 100 µM (inactive),> 100 µM (inactive),> 100 µM (inactive),> 100 µM (inactive),> 100 µM (inactive),> 100 µM (inactive),> 100 µM (inactive),> 100 µM (inactive),> 100 µM (inactive),> 100 µM (inactive)
C=C[C@]1(C)CC(=O)C(C(C)C=O)[C@]12C(=O)Oc1cccc(C)c1C2=O (stereo not given in full),12.9 µM (inactive),17.6 µM (inactive),14 µM (inactive),17.2 µM (inactive),16.1 µM (inactive),17.1 µM (inactive),23.9 µM (inactive),15.6 µM (inactive),27 µM (inactive),16.2 µM (inactive),15.9 µM (inactive),14.7 µM (inactive),13.7 µM (inactive),12.2 µM (inactive),16.4 µM (inactive),20.2 µM (inactive),14.3 µM (inactive),16.6 µM (inactive),14.5 µM (inactive),3.72 µM (inactive)
C[C@@H]1C[C@H]2OC(=O)[C@@]3(C)CCC[C@@](C)([C@@H]23)[C@@]1(O)CCc1ccoc1,42.2 µM (inactive),> 100 µM (inactive),> 100 µM (inactive),> 64.9 µM (inactive),> 100 µM (inactive),> 100 µM (inactive),38 µM (inactive),> 100 µM (inactive),44.5 µM (inactive),> 100 µM (inactive),> 100 µM (inactive),> 100 µM (inactive),> 95.7 µM (inactive),> 100 µM (inactive),> 100 µM (inactive),> 100 µM (inactive),> 49.8 µM (inactive),> 100 µM (inactive),> 100 µM (inactive),> 61.8 µM (inactive)
O=C1C(=Cc2ccco2)C(=O)C2CCCCC12 (stereo not given),17.6 µM (inactive),> 100 µM (inactive),> 100 µM (inactive),> 100 µM (inactive),> 100 µM (inactive),> 100 µM (inactive),> 100 µM (inactive),> 100 µM (inactive),> 100 µM (inactive),> 100 µM (inactive),> 100 µM (inactive),> 100 µM (inactive),> 100 µM (inactive),> 100 µM (inactive),> 100 µM (inactive),> 100 µM (inactive),> 100 µM (inactive),> 100 µM (inactive),> 100 µM (inactive),> 100 µM (inactive)
BrCCC[P+](c1ccccc1)(c1ccccc1)c1ccccc1,3.16 µM (inactive),8.13 µM (inactive),0.736 µM (active),31.3 µM (inactive),12.4 µM (inactive),26.7 µM (inactive),9.66 µM (inactive),> 100 µM (inactive),3.83 µM (inactive),8.47 µM (inactive),3.44 µM (inactive),5.06 µM (inactive),15.9 µM (inactive),16.6 µM (inactive),13.5 µM (inactive),11.3 µM (inactive),8.39 µM (inactive),56.1 µM (inactive),8.2 µM (inactive),3.34 µM (inactive)
Cc1ccc(S(=O)(=O)N2CCC(C(=O)O)(c3ccccc3)CC2)cc1,> 100 µM (inactive),> 100 µM (inactive),> 100 µM (inactive),> 100 µM (inactive),> 100 µM (inactive),> 100 µM (inactive),> 100 µM (inactive),> 100 µM (inactive),> 100 µM (inactive),> 100 µM (inactive),> 100 µM (inactive),> 100 µM (inactive),> 100 µM (inactive),> 100 µM (inactive),> 100 µM (inactive),> 100 µM (inactive),> 100 µM (inactive),> 100 µM (inactive),> 100 µM (inactive),> 100 µM (inactive)
N#C/C(=C(\O)C(=O)O)c1ccc(-c2cccc3ccccc23)cc1,2.65 µM (inactive),> 100 µM (inactive),> 100 µM (inactive),> 100 µM (inactive),> 100 µM (inactive),> 100 µM (inactive),1.51 µM (inactive),> 100 µM (inactive),3.11 µM (inactive),> 100 µM (inactive),> 100 µM (inactive),> 100 µM (inactive),> 100 µM (inactive),> 100 µM (inactive),> 100 µM (inactive),> 100 µM (inactive),> 100 µM (inactive),> 100 µM (inactive),> 100 µM (inactive),> 100 µM (inactive)
CC1(C)CN=C(Nc2ccc(F)c(F)c2)S1,> 100 µM (inactive),> 100 µM (inactive),> 100 µM (inactive),> 100 µM (inactive),> 100 µM (inactive),> 100 µM (inactive),> 100 µM (inactive),> 100 µM (inactive),> 100 µM (inactive),> 100 µM (inactive),> 100 µM (inactive),> 100 µM (inactive),> 100 µM (inactive),> 100 µM (inactive),> 100 µM (inactive),> 100 µM (inactive),> 100 µM (inactive),> 100 µM (inactive),> 100 µM (inactive),> 100 µM (inactive)
CC(=O)NC1CCC(NC(=O)OC(C)(C)C)C(NC(=O)OC(C)(C)C)C1 (stereo not given),> 100 µM (inactive),> 100 µM (inactive),> 100 µM (inactive),> 100 µM (inactive),> 100 µM (inactive),> 100 µM (inactive),> 100 µM (inactive),> 100 µM (inactive),> 100 µM (inactive),> 100 µM (inactive),> 100 µM (inactive),> 100 µM (inactive),> 100 µM (inactive),> 100 µM (inactive),> 100 µM (inactive),> 100 µM (inactive),> 100 µM (inactive),> 100 µM (inactive),> 100 µM (inactive),> 100 µM (inactive)
CC(C(=O)c1ccccc1)C(c1ccccc1)N1CCOCC1 (stereo not given),> 100 µM (inactive),> 100 µM (inactive),> 100 µM (inactive),> 100 µM (inactive),> 100 µM (inactive),> 100 µM (inactive),66.8 µM (inactive),> 100 µM (inactive),> 100 µM (inactive),> 100 µM (inactive),> 100 µM (inactive),> 100 µM (inactive),> 100 µM (inactive),> 100 µM (inactive),> 100 µM (inactive),> 100 µM (inactive),> 100 µM (inactive),> 100 µM (inactive),> 100 µM (inactive),> 100 µM (inactive)
CN(C)CCCN=C(N)N,> 100 µM (inactive),> 100 µM (inactive),> 100 µM (inactive),> 100 µM (inactive),> 100 µM (inactive),> 100 µM (inactive),> 100 µM (inactive),> 100 µM (inactive),> 100 µM (inactive),> 100 µM (inactive),> 100 µM (inactive),> 100 µM (inactive),> 100 µM (inactive),> 100 µM (inactive),> 100 µM (inactive),> 100 µM (inactive),> 100 µM (inactive),> 100 µM (inactive),> 100 µM (inactive),> 100 µM (inactive)
COC(=O)c1cc2ccc(O)c(O)c2cn1,2.42 µM (inactive),10.9 µM (inactive),1.96 µM (inactive),10.1 µM (inactive),13.9 µM (inactive),18.1 µM (inactive),3.44 µM (inactive),19.1 µM (inactive),4.25 µM (inactive),18.7 µM (inactive),17.1 µM (inactive),18.1 µM (inactive),> 10 µM (inactive),> 10 µM (inactive),2.7 µM (inactive),20.6 µM (inactive),> 10 µM (inactive),19.5 µM (inactive),1.52 µM (inactive),21.6 µM (inactive)
